In patent publication US20250066290A1, “DHODH INHIBITORS CONTAINING A CARBOXYLIC ACID BIOISOSTERE” (IMMUNIC AG, priority 2021, published 2025):

What was measured:
SARS-CoV-2 Delta variant = assay: microbe, parasite or virus in culture; type: cell-based; settings: Severe acute respiratory syndrome coronavirus 2; Caco-2 cells, dsRNA immunofluorescence
[1] = tested on: SARS-CoV-2 Omicron variant; assay: microbe, parasite or virus in culture; type: cell-based; settings: Severe acute respiratory syndrome coronavirus 2; Caco-2 cells, dsRNA immunofluorescence; read-out: EC50 Omikron

[2H]C([2H])([2H])Oc1cccc(-c2cc(F)c(NC(=O)c3ccsc3C(=O)NOC)c(F)c2)c1 [Example 9, N3-(3,5-Difluoro-3′-(methoxy-d3)-[1,1′-biphenyl]-4-yl)-N2-methoxythiophene-2,3-di-carboxamide]
EC50 (SARS-CoV-2 Delta variant): < 3 nM | EC50 [1]: < 3 nM
